# In publication PMC6789174 (Drug Design, Development and Therapy, 2019):
# Tests used:
# [1] = biological target: Acetylcholinesterase (Homo sapiens, UniProt P22303); assay: biochemical; conditions: for inhibition at 125 µg/mL / inhibition at 250 µg/mL / inhibition at 500 µg/mL / inhibition at 1000 µg/mL: read-out: %AChE Inhibition (mean ± SEM)
# [2] = biological target: Butyrylcholinesterase (Homo sapiens, UniProt P06276); assay: Anticholinesterase assay; format: biochemical; conditions: for inhibition at 125 µg/mL / inhibition at 250 µg/mL / inhibition at 500 µg/mL / inhibition at 1000 µg/mL: read-out: %BChE Inhibition (mean ± SEM)
# [3] = biological target: T1, porcine α-amylase (Sus scrofa, UniProt P00690); assay: biochemical; conditions: for inhibition at 125 µg/mL: read-out: %Inhibition (mean ± SEM), alpha amylase, concentration 125 µg/mL; for inhibition at 250 µg/mL: read-out: %Inhibition (mean ± SEM), alpha amylase, concentration 250 µg/mL; for inhibition at 1000 µg/mL: read-out: %Inhibition (mean ± SEM), alpha amylase, concentration 1000 µg/mL
# T1 sequence (P00690 16-511): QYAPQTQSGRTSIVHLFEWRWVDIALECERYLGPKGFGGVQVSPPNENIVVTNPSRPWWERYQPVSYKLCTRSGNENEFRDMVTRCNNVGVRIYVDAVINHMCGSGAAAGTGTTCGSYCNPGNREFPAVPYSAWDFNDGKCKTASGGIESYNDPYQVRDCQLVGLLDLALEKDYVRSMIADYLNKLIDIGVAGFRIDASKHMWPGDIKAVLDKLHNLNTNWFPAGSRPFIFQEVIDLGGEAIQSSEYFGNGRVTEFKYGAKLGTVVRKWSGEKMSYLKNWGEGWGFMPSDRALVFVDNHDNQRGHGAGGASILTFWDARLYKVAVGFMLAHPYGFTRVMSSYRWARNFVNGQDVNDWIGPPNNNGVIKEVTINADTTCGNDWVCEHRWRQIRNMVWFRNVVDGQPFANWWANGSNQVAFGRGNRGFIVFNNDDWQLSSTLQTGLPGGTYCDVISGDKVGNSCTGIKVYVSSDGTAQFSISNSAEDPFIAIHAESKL
# [4] = biological target: T2, glucose-6-phosphatase (Homo sapiens, UniProt P35575); assay: Glucose-6-phosphatase activity; format: biochemical; conditions: for Total Activity of glucose-6-phosphatase: 33°C, pH 6.7, control 72.0
# T2 sequence (P35575 1-357): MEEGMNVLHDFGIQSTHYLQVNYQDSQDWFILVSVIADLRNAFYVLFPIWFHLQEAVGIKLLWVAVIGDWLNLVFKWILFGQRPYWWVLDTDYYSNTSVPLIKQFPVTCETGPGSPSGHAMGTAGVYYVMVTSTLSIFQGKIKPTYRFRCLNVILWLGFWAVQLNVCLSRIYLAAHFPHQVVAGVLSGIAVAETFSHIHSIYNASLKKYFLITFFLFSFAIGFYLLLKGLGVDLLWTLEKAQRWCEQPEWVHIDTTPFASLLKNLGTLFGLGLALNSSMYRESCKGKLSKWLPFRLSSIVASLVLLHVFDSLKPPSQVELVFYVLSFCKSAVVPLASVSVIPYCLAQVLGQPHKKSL
# [5] = DPPH free radical scavenging
# [6] = ABTS free radical scavenging
# [7] = test system: Agrobacterium tumefaction; assay: Anti-bacterial activity, agar well diffusion; format: cell-based; conditions: for MIC: read-out: MIC, Agrobacterium tumefaction; for zone of inhibition at 10 µg/mL / zone of inhibition at 20 µg/mL / zone of inhibition at 30 µg/mL: read-out: ZI (Zone of inhibition), Agrobacterium tumefaction
# [8] = test system: Proteus vulgaris; assay: Anti-bacterial activity, agar well diffusion; format: cell-based; conditions: for MIC: read-out: MIC, Proteus vulgaris; for zone of inhibition at 10 µg/mL / zone of inhibition at 20 µg/mL / zone of inhibition at 30 µg/mL: read-out: ZI (Zone of inhibition), Proteus vulgaris
# [9] = test system: Staphylococcus aureus; assay: Anti-bacterial activity, agar well diffusion; format: cell-based; conditions: for MIC: read-out: MIC, Staphylococcus aureus; for zone of inhibition at 10 µg/mL / zone of inhibition at 20 µg/mL / zone of inhibition at 30 µg/mL: read-out: ZI (Zone of inhibition), Staphylococcus aureus
# Chain of Butyrylcholinesterase (P06276 29-602): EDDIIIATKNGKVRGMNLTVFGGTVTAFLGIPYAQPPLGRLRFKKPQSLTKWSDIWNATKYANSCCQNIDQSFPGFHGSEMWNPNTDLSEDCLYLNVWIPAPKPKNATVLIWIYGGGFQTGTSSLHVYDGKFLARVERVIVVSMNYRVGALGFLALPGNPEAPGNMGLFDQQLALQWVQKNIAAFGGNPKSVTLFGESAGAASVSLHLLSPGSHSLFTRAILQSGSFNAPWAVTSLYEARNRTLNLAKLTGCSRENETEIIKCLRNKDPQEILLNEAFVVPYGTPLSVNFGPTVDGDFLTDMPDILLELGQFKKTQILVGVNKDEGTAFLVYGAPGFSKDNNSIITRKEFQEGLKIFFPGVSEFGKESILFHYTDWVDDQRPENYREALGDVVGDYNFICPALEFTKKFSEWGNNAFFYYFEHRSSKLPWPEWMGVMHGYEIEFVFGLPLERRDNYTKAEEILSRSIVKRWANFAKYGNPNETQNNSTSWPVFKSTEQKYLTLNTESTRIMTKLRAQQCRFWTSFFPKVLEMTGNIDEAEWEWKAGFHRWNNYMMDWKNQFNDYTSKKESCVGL
# Chain of Acetylcholinesterase (P22303 32-614, species assumed): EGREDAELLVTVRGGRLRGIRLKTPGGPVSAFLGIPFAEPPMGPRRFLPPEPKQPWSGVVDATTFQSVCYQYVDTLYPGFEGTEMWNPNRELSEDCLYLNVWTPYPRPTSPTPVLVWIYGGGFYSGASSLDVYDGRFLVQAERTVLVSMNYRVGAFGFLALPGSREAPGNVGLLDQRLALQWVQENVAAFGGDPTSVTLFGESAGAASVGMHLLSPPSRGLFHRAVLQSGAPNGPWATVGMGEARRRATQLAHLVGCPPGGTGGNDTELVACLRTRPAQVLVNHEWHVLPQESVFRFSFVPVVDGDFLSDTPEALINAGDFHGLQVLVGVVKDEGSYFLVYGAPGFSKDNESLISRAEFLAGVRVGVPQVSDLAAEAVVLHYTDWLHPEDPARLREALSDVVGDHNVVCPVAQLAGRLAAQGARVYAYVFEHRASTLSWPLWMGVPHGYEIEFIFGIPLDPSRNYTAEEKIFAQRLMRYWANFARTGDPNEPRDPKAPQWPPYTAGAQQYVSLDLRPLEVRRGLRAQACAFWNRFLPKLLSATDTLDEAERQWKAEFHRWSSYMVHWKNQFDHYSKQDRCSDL
smiles,measurement,setting,value
"S=C(Nc1ccccc1)NC(c1ccccn1)C(Cc1ccccc1)Cc1ccccc1 (stereo not drawn) [Compound III, 1-(2-benzyl-3-phenyl-1-(pyridine-2-yl)propyl)-3-phenylthiourea]",IC50,[1],144 µM
same,inhibition at 125 µg/mL,[1],62.2 ± 1.12%
same,inhibition at 250 µg/mL,[1],66.5 ± 2.08%
same,inhibition at 500 µg/mL,[1],75.7 ± 1.15%
same,inhibition at 1000 µg/mL,[1],84.3 ± 1.12%
same,IC50,[2],183 µM
same,inhibition at 125 µg/mL,[2],58.3 ± 1.06%
same,inhibition at 250 µg/mL,[2],61.8 ± 1.54%
same,inhibition at 500 µg/mL,[2],63.8 ± 1.53%
same,inhibition at 1000 µg/mL,[2],68.5 ± 1.07%
same,IC50,[3],263 µM
same,"%Inhibition (mean ± SEM), alpha amylase",[3]; concentration 250 μg/mL,57.91 ± 0.43%
same,inhibition at 125 µg/mL,[3],50.1 ± 2.11%
same,inhibition at 250 µg/mL,[3],62.5 ± 1.24%
same,inhibition at 1000 µg/mL,[3],65.8 ± 1.13%
same,Total Activity of glucose-6-phosphatase,[4]; concentration 125 µg/mL,32.04 mg of P released per hour
same,Total Activity of glucose-6-phosphatase,[4]; concentration 250 µg/mL,28.35 mg of P released per hour
same,Total Activity of glucose-6-phosphatase,[4]; concentration 500 µg/mL,27.10 mg of P released per hour
same,DPPH IC50,[5],79 µg/mL
same,DPPH % I (mean ± S.E.M),[5]; concentration 125 μg/mL,61.14±0.177%
same,DPPH % I (mean ± S.E.M),[5]; concentration 250 μg/mL,64.74 ± 0.267%
same,DPPH % I (mean ± S.E.M),[5]; concentration 500 μg/mL,66.07 ± 0.283%
same,DPPH % I (mean ± S.E.M),[5]; concentration 1000 μg/mL,67.45 ± 0.095%
same,ABTS IC50,[6],80 µg/mL
same,ABTS % I (mean ± S.E.M),[6]; concentration 125 μg/mL,64.77 ±0.087%
same,ABTS % I (mean ± S.E.M),[6]; concentration 250 μg/mL,66.25 ±0.123%
same,ABTS % I (mean ± S.E.M),[6]; concentration 500 μg/mL,68.27 ± 0.532%
same,ABTS % I (mean ± S.E.M),[6]; concentration 1000 μg/mL,69.11 ± 0.234%
same,MIC,[7],11.6 µg/mL
same,zone of inhibition at 10 µg/mL,[7],15 mm
same,zone of inhibition at 20 µg/mL,[7],20 mm
same,zone of inhibition at 30 µg/mL,[7],26 mm
same,MIC,[8],15 µg/mL
same,zone of inhibition at 10 µg/mL,[8],12 mm
same,zone of inhibition at 20 µg/mL,[8],16 mm
same,zone of inhibition at 30 µg/mL,[8],22 mm
same,MIC,[9],14.9 µg/mL
same,zone of inhibition at 10 µg/mL,[9],15 mm
same,zone of inhibition at 20 µg/mL,[9],16 mm
same,zone of inhibition at 30 µg/mL,[9],19 mm
"Fc1ccccc1NC(=S)Nc1ccccc1 [Compound V, 1-(2-fluorophenyl)-3-phenylthiourea]",IC50,[1],739 µM
same,inhibition at 125 µg/mL,[1],51.8 ± 1.72%
same,inhibition at 250 µg/mL,[1],56.3 ± 2.14%
same,inhibition at 500 µg/mL,[1],68.2 ± 1.25%
same,inhibition at 1000 µg/mL,[1],70.2 ± 1.09%
same,IC50,[2],406 µM
same,inhibition at 125 µg/mL,[2],53.07 ± 0.48%
same,inhibition at 250 µg/mL,[2],55.1 ± 1.04%
same,inhibition at 500 µg/mL,[2],59.1 ± 1.76%
same,inhibition at 1000 µg/mL,[2],62.7 ± 1.22%
same,IC50,[3],406 µM
same,inhibition at 125 µg/mL,[3],52.1 ± 2.11%
same,inhibition at 250 µg/mL,[3],55.91 ± 0.43%
same,inhibition at 500 µg/mL,"[3]; read-out: %Inhibition (mean ± SEM), alpha amylase, concentration 500 µg/mL",59.5 ± 1.24%
same,inhibition at 1000 µg/mL,[3],62.8 ± 1.13%
same,"Glucose-6-phosphatase inhibition, in words",[4]; compared to control experiments,most potent inhibitors
same,Total Activity of glucose-6-phosphatase,[4]; concentration 125 µg/mL,05.66 mg of P released per hour
same,Total Activity of glucose-6-phosphatase,[4]; concentration 250 µg/mL,05.21 mg of P released per hour
same,Total Activity of glucose-6-phosphatase,[4]; concentration 500 µg/mL,04.16 mg of P released per hour
same,DPPH IC50,[5],70 µg/mL
same,DPPH % I (mean ± S.E.M),[5]; concentration 125 μg/mL,68.83 ± 1.53%
same,DPPH % I (mean ± S.E.M),[5]; concentration 250 μg/mL,70.55 ± 1.27%
same,DPPH % I (mean ± S.E.M),[5]; concentration 500 μg/mL,71.50 ± 1.61%
same,DPPH % I (mean ± S.E.M),[5]; concentration 1000 μg/mL,73.14 ± 1.10%
same,ABTS IC50,[6],85 µg/mL
same,ABTS % I (mean ± S.E.M),[6]; concentration 125 μg/mL,69.45 ± 1.29%
same,ABTS % I (mean ± S.E.M),[6]; concentration 250 μg/mL,71.14 ± 1.90%
same,ABTS % I (mean ± S.E.M),[6]; concentration 500 μg/mL,73.18 ± 1.46%
same,ABTS % I (mean ± S.E.M),[6]; concentration 1000 μg/mL,75.04 ± 0.10%
same,MIC,[7],11.6 µg/mL
same,zone of inhibition at 10 µg/mL,[7],15 mm
same,zone of inhibition at 20 µg/mL,[7],20 mm
same,zone of inhibition at 30 µg/mL,[7],25 mm
same,MIC,[8],8.94 µg/mL
same,zone of inhibition at 10 µg/mL,[8],16 mm
same,zone of inhibition at 20 µg/mL,[8],21 mm
same,zone of inhibition at 30 µg/mL,[8],24 mm
same,MIC,[9],24.1 µg/mL
same,zone of inhibition at 10 µg/mL,[9],12 mm
same,zone of inhibition at 20 µg/mL,[9],14 mm
same,zone of inhibition at 30 µg/mL,[9],16 mm
"COc1ccc2c3c1O[C@H]1C[C@@H](O)C=C[C@@]31CCN(C)C2 [Galantamine, reference compound]",%BChE Inhibition (mean ± SEM),[2]; concentration 500 μg/mL,87.16 ± 1.23%
same,inhibition at 125 µg/mL,[2],64.8 ± 0.73%
same,inhibition at 1000 µg/mL,[2],92.3 ± 0.74%
